Reference: paper PMC4166607, “Distinct ETA Receptor Binding Mode of Macitentan As Determined by Site Directed Mutagenesis” (PLoS ONE, 2014)
Read-outs that look alike come from different tables or passages of the source. Square brackets hold non-standard residues; d marks the D form. Peptide text beside a SMILES is read from it.

How the values were obtained:
ETA receptor [1] = target: T1, ETA receptor (Homo sapiens, UniProt P25101); assay: cell-based
[2] = target: T2, ETA receptor variant R326Q (Homo sapiens, UniProt P25101, R326Q); assay: cell-based
T2 sequence (P25101 21-427 R326Q): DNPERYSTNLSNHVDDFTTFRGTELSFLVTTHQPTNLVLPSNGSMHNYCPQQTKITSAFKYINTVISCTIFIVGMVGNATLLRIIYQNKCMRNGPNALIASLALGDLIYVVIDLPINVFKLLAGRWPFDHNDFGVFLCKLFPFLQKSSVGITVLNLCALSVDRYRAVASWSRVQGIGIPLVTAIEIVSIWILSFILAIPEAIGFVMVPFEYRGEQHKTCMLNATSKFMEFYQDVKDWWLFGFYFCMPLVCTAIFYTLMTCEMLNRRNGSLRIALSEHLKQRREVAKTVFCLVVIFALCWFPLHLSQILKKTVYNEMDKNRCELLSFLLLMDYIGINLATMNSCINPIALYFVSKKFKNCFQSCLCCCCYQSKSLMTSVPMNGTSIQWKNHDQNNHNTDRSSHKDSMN

[3] = target: T3, ETA receptor variant L322A (Homo sapiens, UniProt P25101, L322A)
T3 sequence (P25101 21-427 L322A): as the sequence (P25101 21-427 R326Q) above, with L302A, Q306R counted along it

[4] = target: T4, ETA receptor variant D351N (Homo sapiens, UniProt P25101, D351N); assay: cell-based
T4 sequence (P25101 21-427 D351N): as the sequence (P25101 21-427 R326Q) above, with Q306R, D331N counted along it

[5] = target: T3, ETA receptor variant L322A; assay: cell-based
[6] = target: T2, ETA receptor variant R326Q
[7] = target: T5, ETA receptor variant K329M (Homo sapiens, UniProt P25101, K329M); assay: cell-based
T5 sequence (P25101 21-427 K329M): as the sequence (P25101 21-427 R326Q) above, with Q306R, K309M counted along it

[8] = target: T6, ETA receptor variant Q165A (Homo sapiens, UniProt P25101, Q165A); assay: cell-based
T6 sequence (P25101 21-427 Q165A): as the sequence (P25101 21-427 R326Q) above, with Q145A, Q306R counted along it

[9] = cited from earlier work
[10] = target: T6, ETA receptor variant Q165A
[11] = target: T4, ETA receptor variant D351N
[12] = target: T5, ETA receptor variant K329M
[13] = target: T7, ETA receptor variant I355A (Homo sapiens, UniProt P25101, I355A); assay: cell-based
T7 sequence (P25101 21-427 I355A): as the sequence (P25101 21-427 R326Q) above, with Q306R, I335A counted along it

[14] = cited from earlier work; remark: listed apart in the source
wildtype ETA receptor [15] = target: T8, wildtype ETA receptor (Homo sapiens, UniProt P25101)
T8 sequence (P25101 21-427): as the sequence (P25101 21-427 R326Q) above, with Q306R counted along it

ETA receptor [16] = target: T1, ETA receptor; details: cited from earlier work; for ETA receptor occupancy half-life (t1/2): PASMC
wildtype ETA receptor [17] = target: T8, wildtype ETA receptor; assay: cell-based
[18] = target: T7, ETA receptor variant I355A
ETA receptor [19] = target: T1, ETA receptor; details: PASMC, 5 µM ET-1, 20 min stimulation, maximal ERA concentration 1 µM, arithmetic means, normalized to macitentan analogs 1 or 8 (100%)
[20] = pKa1, no method or reference printed
[21] = pKa2, no method or reference printed

T1 sequence (P25101 21-427): as the sequence (P25101 21-427 R326Q) above, with Q306R counted along it

IC50 [2] [nM] | IC50 shift versus wildtype (fold) [3] [fold] | IC50 [5] [nM] | IC50 shift versus wildtype (fold) [6] [fold] | IC50 (ETA receptor [1]) [M] | IC50 [13] [nM] | IC50 shift versus wildtype (fold) (wildtype ETA receptor [15]) | IC50 (wildtype ETA receptor [17]) [nM] | IC50 shift versus wildtype (fold) [18] [fold] | Structure (SMILES) | further results
1.2 | 188 | 32 | 7.1 | 9.3e-11 | 0.047 | 1 | 0.17 | 0.3 | CCCCNS(=O)(=O)Nc1ncnc(OCCOc2ncc(Br)cn2)c1-c1ccc(Br)cc1 [macitentan analog 1] | –
34 | 228 | 1090 | 7.1 | 5.1e-10 | 3.9 | 1 | 4.8 | 0.8 | CCNS(=O)(=O)Nc1ncnc(OCCOc2ncc(Br)cn2)c1-c1ccc(Br)cc1 [macitentan analog 2] | –
268 | 66 | 2690 | 6.5 | 3.9e-09 | 45 | 1 | 41 | 1.1 | CCCNS(=O)(=O)Nc1ncnc(OCCOc2ncc(OC)cn2)c1-c1ccc(Br)cc1 [macitentan analog 7] | –
– | – | – | – | 6.5e-11 | – | – | – | – | CCCNS(=O)(=O)Nc1ncnc(OCCOc2ncc(I)cn2)c1-c1ccc(Br)cc1 [macitentan analog 8] | –
– | – | – | – | 4.31e-07 | – | – | – | – | CCCNS(=O)(=O)Nc1ncnc(OCCOc2ccc(Br)cc2)c1-c1ccc(Br)cc1 [macitentan analog 10] | –
– | – | – | – | 2.55e-07 | – | – | – | – | CCCNS(=O)(=O)Nc1ncnc(OCCCCOc2ncc(Br)cn2)c1-c1ccc(Br)cc1 [macitentan analog 12] | –
13 | 2.0 | 0.53 | 50 | 5.2e-11 | 14 | 1 | 0.26 | 54 | COc1ccccc1Oc1c(NS(=O)(=O)c2ccc(C(C)C)cn2)nc(-c2ccnc(-c3nnn[nH]3)c2)nc1OCCO [tezosentan] | pKa (physchem; [20]): 4.4; pKa (physchem; [21]): 4.1

Further lines, the molecule ahead of its results:

Structure (SMILES) | IC50 [2] [nM] | IC50 shift versus wildtype (fold) [3] [fold] | IC50 [5] [nM] | IC50 shift versus wildtype (fold) [6] [fold] | IC50 (ETA receptor [1]) [M] | IC50 [13] [nM] | IC50 shift versus wildtype (fold) (wildtype ETA receptor [15]) | IC50 (wildtype ETA receptor [17]) [nM] | IC50 shift versus wildtype (fold) [18] [fold] | further results
CC(C)C[C@@H]1NC(=O)[C@@H](C(C)C)NC(=O)[C@@H]2CCCN2C(=O)[C@@H](CC(=O)O)NC(=O)[C@@H](Cc2c[nH]c3ccccc23)NC1=O [BQ123] (cyclo(L[dW][dD]P[dV])) | – | – | – | – | – | – | – | – | – | IC50 (ETA receptor [1]; log IC50 (M), calcium flux, PASMC, 4 nM–[…] nM ET-1 (EC80)): 1.26e-09 M
COC(c1ccccc1)(c1ccccc1)[C@H](Oc1nc(C)cc(C)n1)C(=O)O [ambrisentan] | 887 | 15 | 41 | 317 | 4.4e-10 | 8.1 | 1.0 | 2.8 | 2.9 | IC50 [4]: 4.5 nM; IC50 [7]: 0.58 nM; IC50 [8]: 3160 nM; pKa [9]: 3.5; IC50 shift versus wildtype (fold) [10]: 1129 fold; IC50 shift versus wildtype (fold) [11]: 1.6 fold; IC50 shift versus wildtype (fold) [12]: 0.2 fold; logD [14]: −0.4; ETA receptor occupancy half-life (t1/2) (ETA receptor [16]): 1 min
COc1ccccc1Oc1c(NS(=O)(=O)c2ccc(C(C)(C)C)cc2)nc(-c2ncccn2)nc1OCCO [bosentan] | – | – | – | – | – | – | – | – | – | Insurmountability (%) (ETA receptor [19]): 0%; pKa [9]: 5.1; logD [14]: 1.3
COc1ccccc1Oc1c(NS(=O)(=O)c2ccc(C)cn2)nc(-c2ccnc(-c3nnn[nH]3)c2)nc1OCCO [clazosentan] | 2.2 | 1.2 | 0.1 | 26 | 3.3e-11 | 2.7 | 1 | 0.085 | 32 | pKa (physchem; [20]): 4.5; pKa (physchem; [21]): 3.3
O=S(=O)(NCc1ccccc1)Nc1ncnc(OCCOc2ncc(Br)cn2)c1-c1ccc(Br)cc1 [macitentan analog 3] | – | – | – | – | 8.5e-11 | – | – | – | – | –
CCS(=O)(=O)Nc1ncnc(OCCOc2ncc(Br)cn2)c1-c1ccc(Br)cc1 [macitentan analog 4] | – | – | – | – | 1.2e-09 | – | – | – | – | –
CCCS(=O)(=O)Nc1ncnc(OCCOc2ncc(Br)cn2)c1-c1ccc(Br)cc1 [macitentan analog 5] | – | – | – | – | 3.8e-10 | – | – | – | – | –
CCCCS(=O)(=O)Nc1ncnc(OCCOc2ncc(Br)cn2)c1-c1ccc(Br)cc1 [macitentan analog 6] | – | – | – | – | 6.2e-10 | – | – | – | – | –
CCCNS(=O)(=O)Nc1ncnc(OCCOc2ncc(Br)cn2)c1-c1ccc(Cl)cc1 [macitentan analog 9] | 46 | 136 | 1900 | 3.3 | 4.7e-10 | 8.6 | 1 | 14 | 0.6 | –
CCCNS(=O)(=O)Nc1ncnc(OCCCOc2ncc(Br)cn2)c1-c1ccc(Br)cc1 [macitentan analog 11] | – | – | – | – | 3.5e-08 | – | – | – | – | –
CCCNS(=O)(=O)Nc1ncnc(OCCOc2ncc(Br)cn2)c1-c1ccc(Br)cc1 [macitentan, N-[5-(4-bromophenyl)-6-[2-[(5-bromo-2-pyrimidinyl)oxy]ethoxy]-4-pyrimidinyl]-N′-propylsulfamide] | 7.6 | 148 | 178 | 6.3 | 1.7e-10 | 1.1 | 1.0 | 1.2 | 0.9 | IC50 [4]: 1.5 nM; Insurmountability (%) (ETA receptor [19]): 64%; IC50 [7]: 0.58 nM; IC50 [8]: 209 nM; IC50 shift versus wildtype (fold) [10]: 174 fold; IC50 shift versus wildtype (fold) [11]: 1.2 fold; IC50 shift versus wildtype (fold) [12]: 0.5 fold; logD [14]: 2.9; ETA receptor occupancy half-life (t1/2) (ETA receptor [16]): ~17 min; increase of receptor occupancy half-life compared to ambrisentan and bosentan (ETA receptor [16]; human primary PASMC): ~20 fold
